Assay results reported in ChEMBL document CHEMBL5665443, “Enzyme Inhibitor Single Concentration assay results for EUbOPEN Chemogenomics Library” (2024).

Assays:
Conditions in all cases: Compound Concentration 10.0 uM, Hit No
[1] = target: N-glycosylase/DNA lyase (Homo sapiens) (UniProt O15527);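 note: OGG1 cleavage of a quenched duplex DNA oligonucleotide, coupled to APE1 for strand incision, read as fluorescence at 594 nm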
Description: Inhibition of OGG1 by quantifying inhibition of OGG1-mediated cleavage and dissociation of quenched duplex DNA oligonucleotides, measured as fluorescence at 594 nm. To generate a functional strand incision and increase turn-over this assay is coupled to APE1.

[2] = target: G/T mismatch-specific thymine DNA glycosylase (Homo sapiens) (UniProt Q13569);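 note: human TDG cleavage of quenched duplex DNA oligonucleotides coupled to APE1, strand release read as fluorescence at 594 nm, inhibition of TDG activity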
Description: Inhibition of TDG by quantifying inhibition of TDG-mediated cleavage and dissociation of quenched duplex DNA oligonucleotides, measured as fluorescence at 594 nm. To generate a functional strand incision and increase turn-over this assay is coupled to APE1.

[3] = target: T1, Endonuclease III-like protein 1 (Homo sapiens) (UniProt P78549);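 note: enzyme assay tracking NTHL1 cutting and release of a quenched double-stranded DNA oligo substrate, read as fluorescence at 594 nm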
T1 sequence (whole entry): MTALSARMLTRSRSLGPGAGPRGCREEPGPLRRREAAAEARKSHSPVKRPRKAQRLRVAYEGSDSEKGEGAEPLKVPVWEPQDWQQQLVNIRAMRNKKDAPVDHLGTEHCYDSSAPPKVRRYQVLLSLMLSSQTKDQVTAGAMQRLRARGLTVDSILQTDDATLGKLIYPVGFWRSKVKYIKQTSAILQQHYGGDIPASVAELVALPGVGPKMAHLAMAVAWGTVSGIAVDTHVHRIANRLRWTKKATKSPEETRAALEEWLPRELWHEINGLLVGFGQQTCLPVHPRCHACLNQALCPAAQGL
Description: Inhibition of NTHL1 by quantifying inhibition of NTHL1-mediated cleavage and dissociation of quenched duplex DNA oligonucleotides, measured as fluorescence at 594 nm.

[4] = target: T2, Endonuclease 8-like 2 (Homo sapiens) (UniProt Q969S2);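 note: fluorescence at 594 nm reports NEIL2 cutting and release of a quenched double-stranded DNA oligo substrate, reduced signal read as inhibition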
T2 sequence (whole entry): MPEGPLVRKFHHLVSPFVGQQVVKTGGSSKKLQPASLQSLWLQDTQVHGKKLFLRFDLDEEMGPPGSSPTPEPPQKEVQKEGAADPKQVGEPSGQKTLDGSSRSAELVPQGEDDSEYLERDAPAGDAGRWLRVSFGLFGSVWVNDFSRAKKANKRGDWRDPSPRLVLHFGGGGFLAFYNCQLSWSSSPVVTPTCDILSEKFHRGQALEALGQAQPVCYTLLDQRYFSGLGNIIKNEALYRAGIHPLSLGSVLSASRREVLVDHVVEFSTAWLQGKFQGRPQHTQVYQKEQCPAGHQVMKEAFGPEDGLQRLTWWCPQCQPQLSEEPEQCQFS
Description: Inhibition of NEIL2 by quantifying inhibition of NEIL2-mediated cleavage and dissociation of quenched duplex DNA oligonucleotides, measured as fluorescence at 594 nm.

[5] = target: T3, Adenine DNA glycosylase (Homo sapiens) (UniProt Q9UIF7);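 note: human MUTYH activity read as 594 nm fluorescence from cleavage and release of a quenched DNA duplex, coupled with APE1 for strand incision, lower signal meaning inhibition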
T3 sequence (whole entry): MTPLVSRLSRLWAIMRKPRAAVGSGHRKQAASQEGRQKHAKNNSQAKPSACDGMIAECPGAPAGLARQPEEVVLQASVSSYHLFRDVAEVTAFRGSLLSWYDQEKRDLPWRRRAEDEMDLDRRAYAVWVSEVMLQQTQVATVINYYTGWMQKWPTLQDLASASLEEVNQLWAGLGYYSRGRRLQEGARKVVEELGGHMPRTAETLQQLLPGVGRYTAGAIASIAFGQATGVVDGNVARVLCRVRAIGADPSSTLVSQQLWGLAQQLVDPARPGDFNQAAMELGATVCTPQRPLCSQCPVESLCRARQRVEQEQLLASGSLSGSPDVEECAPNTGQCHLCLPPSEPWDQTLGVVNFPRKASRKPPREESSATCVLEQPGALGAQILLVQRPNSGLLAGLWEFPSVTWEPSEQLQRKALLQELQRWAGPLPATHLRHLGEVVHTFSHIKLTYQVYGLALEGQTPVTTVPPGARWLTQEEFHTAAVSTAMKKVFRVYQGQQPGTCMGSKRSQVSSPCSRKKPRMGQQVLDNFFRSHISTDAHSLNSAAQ
Description: Inhibition of MUTYH by quantifying inhibition of MUTYH-mediated cleavage and dissociation of quenched duplex DNA oligonucleotides, measured as fluorescence at 594 nm. To generate a functional strand incision and increase turn-over this assay is coupled to APE1.

[6] = target: DNA-3-methyladenine glycosylase (Homo sapiens) (UniProt P29372);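 note: enzyme assay where MPG cuts a quenched duplex DNA oligonucleotide probe, paired with APE1 for strand incision and turnover, read as fluorescence at 594 nm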
Description: Inhibition of MPG by quantifying inhibition of MPG-mediated cleavage and dissociation of quenched duplex DNA oligonucleotides, measured as fluorescence at 594 nm. To generate a functional strand incision and increase turn-over this assay is coupled to APE1.

[7] = target: Endonuclease 8-like 1 (Homo sapiens) (UniProt Q96FI4);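 note: fluorescence at 594 nm from quenched duplex DNA oligonucleotides released by NEIL1 cleavage and strand separation, reported as reduction of this enzyme activity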
Description: Inhibition of NEIL1 by quantifying inhibition of NEIL1-mediated cleavage and dissociation of quenched duplex DNA oligonucleotides, measured as fluorescence at 594 nm.

[8] = target: Uracil-DNA glycosylase (Homo sapiens) (UniProt P13051);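 note: UNG excision on a quenched double-stranded DNA oligo probe, with APE1 added for strand incision and turnover, read as fluorescence at 594 nm as strands separate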
Description: Inhibition of UNG by quantifying inhibition of UNG-mediated cleavage and dissociation of quenched duplex DNA oligonucleotides, measured as fluorescence at 594 nm. To generate a functional strand incision and increase turn-over this assay is coupled to APE1.

[9] = target: T4, Single-strand selective monofunctional uracil DNA glycosylase (Homo sapiens) (UniProt Q53HV7);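 note: enzymatic SMUG1 assay coupled with APE1, reading fluorescence at 594 nm released when a quenched double-stranded DNA oligonucleotide substrate is cleaved and separated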
T4 sequence (whole entry): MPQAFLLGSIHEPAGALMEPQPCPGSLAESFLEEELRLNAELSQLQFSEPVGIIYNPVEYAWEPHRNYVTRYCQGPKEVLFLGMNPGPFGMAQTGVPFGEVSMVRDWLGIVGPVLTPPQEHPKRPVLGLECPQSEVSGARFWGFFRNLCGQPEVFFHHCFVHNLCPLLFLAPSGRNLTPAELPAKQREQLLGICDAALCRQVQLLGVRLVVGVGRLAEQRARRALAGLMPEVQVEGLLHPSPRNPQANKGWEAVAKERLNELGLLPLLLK
Description: Inhibition of SMUG1 by quantifying inhibition of SMUG1-mediated cleavage and dissociation of quenched duplex DNA oligonucleotides, measured as fluorescence at 594 nm. To generate a functional strand incision and increase turn-over this assay is coupled to APE1.

Chain of G/T mismatch-specific thymine DNA glycosylase (Homo sapiens) (Q13569 whole entry): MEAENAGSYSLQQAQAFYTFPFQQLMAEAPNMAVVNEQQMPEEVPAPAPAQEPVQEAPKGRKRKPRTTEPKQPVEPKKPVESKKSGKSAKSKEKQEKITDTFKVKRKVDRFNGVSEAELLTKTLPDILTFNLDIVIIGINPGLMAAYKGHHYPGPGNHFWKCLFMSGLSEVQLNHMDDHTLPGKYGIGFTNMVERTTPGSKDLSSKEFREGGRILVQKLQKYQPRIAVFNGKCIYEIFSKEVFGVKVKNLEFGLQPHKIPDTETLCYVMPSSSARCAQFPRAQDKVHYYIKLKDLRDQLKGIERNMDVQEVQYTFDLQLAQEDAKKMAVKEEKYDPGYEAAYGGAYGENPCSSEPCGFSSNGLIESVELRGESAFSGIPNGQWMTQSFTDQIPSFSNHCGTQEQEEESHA
Chain of N-glycosylase/DNA lyase (Homo sapiens) (O15527 whole entry): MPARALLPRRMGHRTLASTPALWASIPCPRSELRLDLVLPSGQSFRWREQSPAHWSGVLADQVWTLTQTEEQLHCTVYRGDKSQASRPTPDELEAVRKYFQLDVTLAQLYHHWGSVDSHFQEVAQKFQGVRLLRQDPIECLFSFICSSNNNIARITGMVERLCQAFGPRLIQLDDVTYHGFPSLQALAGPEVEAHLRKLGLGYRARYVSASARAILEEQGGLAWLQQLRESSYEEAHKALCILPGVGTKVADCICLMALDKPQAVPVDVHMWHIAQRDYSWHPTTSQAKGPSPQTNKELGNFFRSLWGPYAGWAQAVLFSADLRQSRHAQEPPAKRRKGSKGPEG
Chain of Endonuclease 8-like 1 (Homo sapiens) (Q96FI4 whole entry): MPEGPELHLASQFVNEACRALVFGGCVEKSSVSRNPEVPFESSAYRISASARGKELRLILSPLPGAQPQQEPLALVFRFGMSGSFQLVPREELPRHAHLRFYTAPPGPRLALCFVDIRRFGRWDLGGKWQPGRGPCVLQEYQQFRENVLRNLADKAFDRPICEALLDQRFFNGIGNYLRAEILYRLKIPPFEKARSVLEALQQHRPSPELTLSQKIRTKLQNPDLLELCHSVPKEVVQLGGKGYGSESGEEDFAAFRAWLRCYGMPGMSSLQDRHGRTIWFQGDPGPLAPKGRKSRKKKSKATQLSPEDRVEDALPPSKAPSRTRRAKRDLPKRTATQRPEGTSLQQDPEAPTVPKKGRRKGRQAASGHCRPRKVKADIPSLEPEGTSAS
Chain of DNA-3-methyladenine glycosylase (Homo sapiens) (P29372 whole entry): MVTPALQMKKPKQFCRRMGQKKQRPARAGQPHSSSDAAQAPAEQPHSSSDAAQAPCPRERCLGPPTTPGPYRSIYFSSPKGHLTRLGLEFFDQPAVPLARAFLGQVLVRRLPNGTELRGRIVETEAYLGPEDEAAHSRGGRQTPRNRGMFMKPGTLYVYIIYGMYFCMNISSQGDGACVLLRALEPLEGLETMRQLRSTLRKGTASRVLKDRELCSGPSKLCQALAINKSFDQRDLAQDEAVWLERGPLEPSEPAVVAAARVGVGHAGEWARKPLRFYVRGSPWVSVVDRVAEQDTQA
Chain of Uracil-DNA glycosylase (Homo sapiens) (P13051 whole entry): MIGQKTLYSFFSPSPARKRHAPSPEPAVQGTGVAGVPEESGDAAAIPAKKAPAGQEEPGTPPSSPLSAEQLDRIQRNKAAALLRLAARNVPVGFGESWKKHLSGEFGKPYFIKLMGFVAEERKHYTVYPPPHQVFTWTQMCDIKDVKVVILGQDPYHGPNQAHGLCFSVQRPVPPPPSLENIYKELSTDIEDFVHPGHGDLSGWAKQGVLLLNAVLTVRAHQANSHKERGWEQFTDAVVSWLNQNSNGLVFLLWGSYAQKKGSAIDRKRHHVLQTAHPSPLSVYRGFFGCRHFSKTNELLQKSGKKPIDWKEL

Molecule | inhibition [1] [%] | inhibition [2] [%] | inhibition [3] [%] | inhibition [4] [%] | inhibition [5] [%] | inhibition [6] [%] | inhibition [7] [%] | inhibition [8] [%] | inhibition [9] [%]
Cc1ccc(O)c([C@H](CCN(C(C)C)C(C)C)c2ccccc2)c1 | -3.4 | 2.93 | -3.21 | 2.01 | 8.6 | -5.07 | 5.28 | – | –
CN(C(=O)/C=C/c1ccoc1)[C@@H]1CC[C@@]2(O)[C@H]3Cc4ccc(O)c5c4[C@@]2(CCN3CC2CC2)[C@H]1O5 | -1.76 | 13.5 | 1.92 | 1.76 | 8.72 | 5.81 | 14.2 | -6.84 | -7.79
Cc1cnc(-c2cc(N3CCN(C(=O)CCS(C)(=O)=O)CC3)ncc2Cl)c(C)c1 | -3.06 | – | 15.8 | -4.23 | 0.917 | -9.96 | – | – | –
O=C(O)C1CN(Cc2ccc(-c3nc4cc(Cc5ccccc5F)ccc4s3)c(F)c2)C1 | -3.25 | -3.37 | 11.4 | -3.48 | -0.363 | -8.77 | -0.945 | – | –
COc1ccc(C2(O)OC(=O)C(c3ccc4c(c3)OCO4)=C2Cc2cc(OC)c(OC)c(OC)c2)cc1 (stereo not given) | -9.68 | 8.23 | 15.1 | – | 22.7 | 13.2 | -4.95 | -1.01 | –
C[C@@H](OC[C@@]1(c2ccccc2)CC[C@]2(CCC(=O)N2)CN1)c1cc(C(F)(F)F)cc(C(F)(F)F)c1 | -0.784 | 9.1 | -6.14 | 6.75 | 10.9 | -7.57 | -1.98 | -7.13 | -1.58
CC[S+]([O-])c1nc(-c2cccc(OCc3ccccc3)c2)cc(C(F)(F)F)n1 (stereo not given) | 6.41 | 4.54 | -3.94 | 10.8 | -4.2 | -6.11 | 5.43 | -7.73 | 4.67
H-RPPGFSPFR-OH | -0.678 | 26.9 | 1.39 | -1.37 | 29 | 15.2 | 4.01 | 2.31 | 5.92
C/N=C(/NC#N)NCCSCc1csc(NC(=N)N)n1 | -8.12 | 1.2 | -9.8 | – | -6.76 | -5.07 | -6.13 | – | -3.81
NCCc1ccc(O)c(O)c1 | -1.68 | 8.49 | 21 | -3.23 | 17.9 | -0.746 | 2.32 | -7.47 | -4.83
NC(=O)c1ccc(CNC(=O)NC[C@H]2CN(Cc3ccc(Cl)c(Cl)c3)CCO2)cc1 | -7.25 | 19.2 | 15.8 | 16.2 | 5.52 | -0.36 | 7.06 | – | –
CC(C)(C(=O)O)c1ccc(C(O)CCCN2CCC(C(O)(c3ccccc3)c3ccccc3)CC2)cc1 (stereo not given) | -9.14 | 8.16 | 2.66 | 8 | -0.107 | -4.6 | -7.32 | -8.82 | -3.57
O=C(Nc1cc(C(F)(F)F)cc(C(F)(F)F)c1)c1cc(Cl)ccc1O | 28.6 | – | 6.35 | -3.41 | -9.19 | 9.82 | 1.2 | -1.16 | 4.73
O=c1ccn([C@@H]2O[C@H](COP(=O)(O)OP(=O)(O)OP(=O)(O)OP(=O)(O)OC[C@H]3O[C@@H](n4ccc(=O)[nH]c4=O)[C@H](O)[C@@H]3O)[C@@H](O)[C@H]2O)c(=O)[nH]1 | -1.8 | 3.7 | 20.2 | -3.48 | -6.25 | 0.18 | 3.21 | – | –
CNc1nc(Nc2ccccc2)nc(OC(C(F)(F)F)C(F)(F)F)n1 | -3.77 | 4.54 | 19.6 | 1.69 | -4.15 | -9.6 | 2.83 | 1.86 | 2.08
CN1CCC(C(=O)c2cccc(NC(=O)c3c(F)cc(F)cc3F)n2)CC1 | -2.69 | 19.6 | -6.14 | -1.73 | 9.62 | 2.3 | 4.54 | -8.11 | -9.63
CN(C)CC[C@@H](c1ccc(Cl)cc1)c1ccccn1 | -3.11 | 6.86 | 6.32 | 12 | 11.5 | 0.18 | -2.28 | -8.86 | –
Cc1ccc(S(=O)(=O)Nc2ccc(-n3nc(C(F)(F)F)cc3C(F)(F)F)cc2)cc1 | 21.7 | – | 16.2 | 5 | -4.85 | 20 | 3.57 | -1.93 | 19.1
c1ccc2c(c1)CCC[C@H]2Nc1nc2ccccc2[nH]1 | 1.89 | 8.8 | 4.7 | 3.47 | 2.96 | 9.2 | 4.46 | -4.72 | -5.61
CC(C)NCC(O)c1ccc(N)c(C#N)c1 (stereo not given) | -2.67 | -4.14 | 12.9 | -8.72 | 4.24 | 0.373 | -4.21 | – | -9.04
C[C@@H](NCCc1ccc(O)cc1)[C@@H](O)c1ccc(O)cc1 (relative stereo) | -4.18 | 5 | 17.3 | 6.25 | 11.7 | -3.37 | -5.25 | – | –
Cc1ccccc1-c1cc(N2CCN(C)CC2)ncc1N(C)C(=O)C(C)(C)c1cc(C(F)(F)F)cc(C(F)(F)F)c1 | -7.29 | -5.37 | 21.7 | 1.76 | -1.13 | -7.15 | 0.537 | – | –
COC(c1ccccc1)(c1ccccc1)[C@H](Oc1nc(C)cc(C)n1)C(=O)O | 1.14 | 14.5 | 6.32 | 10.8 | 23.3 | 4.85 | 9.14 | -5.94 | -3.28
CCC(=O)OCC(=O)[C@@]1(OC(=O)CC)[C@@H](C)C[C@H]2[C@@H]3CCC4=CC(=O)C=C[C@]4(C)[C@@]3(Cl)[C@@H](O)C[C@@]21C | -5.93 | -4.42 | 22.4 | 7 | 11.3 | 2.96 | 7.21 | – | –
